Reference: patent US20200345725A1, “Methods and Compositions for Treating Cancer” (Omeros Corporation, priority 2019, published 2020)
Marks after values point to notes of the source that are not given here.

Key:
[1] = test system: human PBMCs; assay: Th1 cytokines in supernatants of stimulated human PBMC, GPR174 inhibitor with adenosine pathway inhibitors (Examples 15, 18-22); type: cell-based; conditions: donor 7
Experimental: Human PBMCs, obtained from a human volunteer donor, were dispensed at density of 1×10^6 cells/well in a 96-well flat-bottom plate and were stimulated in triplicate with 1 μg/mL anti-CD3 antibody (UCHT1) and 0.1 μg/mL anti-CD28 antibody (CD28.2) in the presence of:
Supernatants from these cells were collected at 24 hours post-stimulation and the levels of IFN-γ were determined by ELISA assay. Statistical analysis was carried out using one-way ANOVA with Tukey's post-hoc multiple comparison's correction.
Human PBMCs, obtained from a human volunteer donor (donor 1), were dispensed in X-vivo15 media (Lonza) supplemented with Glutamax, penicillin and streptomycin, at density of 1×10^6 cells/well in a 96-well flat-bottom plate and were stimulated with 1 μg/mL anti-CD3 antibody (UCHT1) and 0.1 μg/mL anti-CD28 antibody (CD28.2) in the presence of:
Supernatants from these cells were collected at 24 hours post-stimulation and the levels of IFN-γ, IL-2 and TNF were determined by ELISA assays.
Human PBMCs, obtained from two individual human volunteer donors (donor 2 and donor 3), were dispensed at density of 1×10^6 cells/well in a 96-well flat-bottom plate and were stimulated with 1 μg/mL anti-CD3 antibody (UCHT1) and 0.1 μg/mL anti-CD28 antibody (CD28.2) in the presence of:
Human PBMCs, obtained from twelve individual human volunteer donors were dispensed at density of 1×10^6 cells/well in a 96-well flat-bottom plate and were stimulated in triplicate with 1 μg/mL anti-CD3 antibody (UCHT1) and 0.1 μg/mL anti-CD28 antibody (CD28.2) in the presence of:
A total of 44 experiments using PBMC from 12 healthy donors were tested (9 donors for GM-CSF), with each donor tested in 1 to 8 separate experiments, depending on the donor (1 to 4 experiments each for GM-CSF). […] Cytokines were detected in supernatants with the Legendplex (Biolegend) or the MSB (MesoScale) platforms. […] One-way ANOVA with Tukey's post-hoc multiple comparisons correction was performed to identify significant differences (FC, mean fold change; ****, p<0.0001, ***, p<0.001; **, p<0.01; *, p<0.05, ns, not significant).
Human PBMC (1×10^6 cells/well in a 96-well flat-bottom plate) obtained from donor 3 and donor 6 were stimulated with 1 μg/mL anti-CD3 antibody (UCHT1) and 0.1 μg/mL anti-CD28 antibody (CD28.2) in the presence of:
Supernatants from these cells were collected at 24 hours post-stimulation and the levels of IFN-γ, IL-2, and TNF were determined with the MSD platform (MesoScale Discovery).
Human PBMC (1×10^6 cells/well in a 96-well flat-bottom plate) obtained from donor 7 were stimulated with 1 μg/mL […] (UCHT1) and 0.1 μg/mL anti-CD28 antibody (CD28.2) in the presence of:
Supernatants from these cells were collected at 24 hours post-stimulation and the levels of IFN-γ, IL-2, TNF and GM-CSF were determined with the MSD platform (MesoScale Discovery).
Supernatants from these cells were collected at 24 hours post-stimulation and the levels of IFN-γ, IL-2 and TNF were determined with the MSD platform (MesoScale Discovery).

[2] = test system: mouse splenocytes; assay: IL-2 levels in supernatants of cultured mouse splenocytes (WT or GPR174-KO) stimulated with anti-CD3 and anti-CD28, MSD platform; type: cell-based; conditions: GPR174-KO splenocytes, NECA 0.1 μM, 2 days; compounds 10, 6 0.3 μM, ZM-241385 0.2 μM; FIG. 70B
Experimental: To make single cell suspensions from mouse splenocytes, spleens were cut into 1-2 mm^3 pieces with a razor blade and incubated at 37° C. with 10 μg/mL DNase and 1 mg/mL Collagenase D with agitation for 90 min. Spleen fragments and cells were then pressed through a nylon screen, and the resulting cell suspension was washed. In 96-well flat-bottom plates, splenocytes were cultured in quadruplicate with the following conditions for 2 days, after which supernatants were tested for cytokine levels with the MSD platform.
Anti-CD3 (clone 2C11; 0.1 μg/mL)
GPR174 inhibitor (compound 10, 1 μM or 0.3 μM, or DMSO vehicle control)
GPR174 inhibitor (compound 6, 0.3 μM, or DMSO vehicle control)
Adenosine receptor agonist (NECA, 0.1 μM)

[3] = high and low concentrations, ZM 0.1 μM
[4] = no ZM, 0.3 μM (compound 20: 3 μM)
[5] = no ZM, 1 μM (compound 20: 10 μM)
[6] = with ZM-241385 0.1 μM, 0.3 μM (compound 20: 3 μM)
[7] = with ZM-241385 0.1 μM, 1 μM (compound 20: 10 μM), label ZM = ZM alone

Q: Which “synergy with ZM on GM-CSF (greater than the sum of the increases with each inhibitor alone)” value [1, 3] does the source give for `O=C(c1ccccc1)N1CCN(c2cc(N3CCCCC3)c(F)cc2[N+](=O)[O-])CC1` [compound 6] here?
A: The value was “synergized with ZM”.

Q: What about the “synergy with ZM on IFN-γ (greater than the sum of the increases with each inhibitor alone)” value [1, 3] of the same compound?
A: The value was “synergized with ZM”.

Q: And the “synergy with ZM on IL-2 (greater than the sum of the increases with each inhibitor alone)” value [1, 3]?
A: The value was “synergized with ZM”.

Q: What about the “synergy with ZM on TNF (greater than the sum of the increases with each inhibitor alone)” value [1, 3] of the same compound?
A: Its value is “synergized with ZM”.

Q: What about the “GM-CSF, ratio relative to vehicle control” value [1, 4] of the same compound?
A: The value was 3.9*.

Q: And the “IFN-γ, ratio relative to vehicle control” value [1, 4]?
A: Its value is 2.0*.

Q: And the “IL-2, ratio relative to vehicle control” value [1, 4]?
A: The value was 1.5*.

Q: What about the “TNF, ratio relative to vehicle control” value [1, 4] of the same compound?
A: Its value is 2.1*.

Q: And the “GM-CSF, ratio relative to vehicle control” value [1, 5]?
A: Its value is 2.9*.

Q: What about the “IFN-γ, ratio relative to vehicle control” value [1, 5] of the same compound?
A: The value was 1.9*.

Q: What about the “IL-2, ratio relative to vehicle control” value [1, 5] of the same compound?
A: The value was 1.5*.

Q: What about the “TNF, ratio relative to vehicle control” value [1, 5] of the same compound?
A: The value was 2.1*.

Q: And the “GM-CSF, ratio relative to vehicle control” value [1, 6]?
A: Its value is 6.2*.

Q: What about the “IFN-γ, ratio relative to vehicle control” value [1, 6] of the same compound?
A: Its value is 3.1*.

Q: And the “IL-2, ratio relative to vehicle control” value [1, 6]?
A: The value was 1.9*.

Q: What about the “TNF, ratio relative to vehicle control” value [1, 6] of the same compound?
A: The value was 3.4*.

Q: And the “GM-CSF, ratio relative to vehicle control” value [1, 7]?
A: Its value is 6.0*.

Q: And the “IFN-γ, ratio relative to vehicle control” value [1, 7]?
A: The value was 3.8*.

Q: What about the “IL-2, ratio relative to vehicle control” value [1, 7] of the same compound?
A: The value was 2.1*.

Q: What about the “TNF, ratio relative to vehicle control” value [1, 7] of the same compound?
A: The value was 4.0*.

Q: What about the “increase of IL-2 levels” value [2] of the same compound?
A: Its value is “modest off-target activity”.
